From patent US20180280393A1, “METHODS AND COMPOSITIONS FOR TREATMENT OF METASTATIC AND REFRACTORY CANCERS AND TUMORS” (The Wistar Institute of Anatomy and Biology, priority 2015, published 2018)

Key:
human T cells [1] = assay: aAPC (anti-CD3/anti-CD28)-induced human T cell proliferation, CELLTRACE; format: cell-based; settings: 7 days
Experimental: Four plots show proliferation of CD8 cells after 7 days is shown. […] Proliferation of CD8 cells after 7 days is shown. T cell stimulation-For human T cell proliferation assays, peripheral blood lymphocytes were obtained by leukapheresis/elutriation and Miltenyi bead-purified and K562 cells expressing human CD32 were generated as previously described^41. […] were γ-irradiated (100 Gy) and loaded with anti-CD3 (500 ng/ml, clone OKT3; eBioscience) plus anti-CD28 (500 ng/ml, clone 15E8; EMD Millipore) antibodies at room temperature for 10 minutes. PBMCs were labeled with CELLTRACE Violet stain (Invitrogen) according to the manufacturer's instructions and cocultured with loaded […] cells at a 10:1 T cells:[…] ratio or activated with ConA (2 μg/ml, Sigma). Proliferation of stimulated T cells was determined 7 days later by FACS and Division Index was calculated using FlowJo software.

human T cells [2] = assay: ConA-induced activation and expansion of human T cells (high-throughput screen); format: cell-based
Experimental: T cell stimulation—For human T cell proliferation assays, peripheral blood lymphocytes were obtained by leukapheresis/elutriation and Miltenyi bead-purified and K562 cells expressing human CD32 were generated as previously described^41. […] PBMCs were labeled with CELLTRACE Violet stain (Invitrogen) according to the manufacturer's instructions and cocultured with loaded K32 cells at a 10:1 T cells:K32 ratio or activated with ConA (2 μg/ml, Sigma). Proliferation of stimulated T cells was determined 7 days later by FACS and Division Index was calculated using FlowJo software.
(§1) EC50 values were calculated from normalized percent inhibition data using non-linear curve fitting in PRISM software.

[3] = system: A2780 ovarian cancer cells; assay: Molecular screening of compounds on A2780 cell proliferation (resazurin fluorescence); format: cell-based, human; settings: except at a high concentration
Experimental: (§2) Cell proliferation assays—Cells were plated in 96-well plates. Compounds were added the next morning, and cell proliferation was measured 48 hrs later with the […] 96 MTS assay (Promega) according to the manufacturer's instructions. Molecular screening of compounds on A2780 cells was performed by adding compounds the morning after plating in 384-well plates and measuring proliferation 72 hrs later with resazurin fluorescence. Normalized percent inhibition (NPI) was calculated with respect to fluorescence values obtained with DMSO negative control and doxorubicin (5 μM) positive control as NPI=100%*(DMSO−compound)/(DMSO−doxorubicin). TCR ligation of human CD8 T cells
as §1

MCF-7 tumor cells = assay: MCF-7 cell proliferation, MTS assay; format: cell-based, human; settings: 2 days
Experimental: Representative results from one of two independent experiments.
as §2

ERK1/2 phosphorylation = assay: TCR ligation of human CD8 T cells, Western blot for ERK1/2 phosphorylation; format: cell-based
Experimental: FIG. 2C is a blot showing FACS-sorted human CD8 T cells that were stimulated by anti-CD3/CD28 crosslinking in the presence of the indicated compounds as described in methods. After 10 min, cells were harvested for Western blotting.
CD8+ cells were sorted from PBMCs and rested overnight in R10. T cells (0.5×10^6 per condition) were stained with OKT3-biotin (BioLegend, 10 μg/ml) for 15 mins on ice, and washed in cold PBS. TCR ligation was performed by adding streptavidin (Promega, 25 μg/ml) and anti-CD28 (Millipore, clone 15E8, 1 μg/ml) in the presence of indicated inhibitors for 10 min at 37° C.
Western blotting—Cells were lysed in RIPA buffer (Thermo Scientific) with protease inhibitors (Complete Protease Inhibitor Cocktail Tablets, Roche) and phosphatase inhibitors (Halt Phosphatase Inhibitor, Thermo Scientific, and Na3VO4, 1 mM) and cleared by centrifugation. Proteins were quantified by BCA assay (Thermo Scientific), diluted in reducing lamelli buffer, denatured by incubation at 95° C., run on mini Protean TGX Ready Gels (Bio-Rad Laboratories), transferred to a nitrocellulose membrane, blocked, and incubated with primary antibodies for p-ERK1/2 (Cell Signaling Technologies, clone D13.14.4E), p-AKT (Cell Signaling Technologies, clone D9E), beta-tubulin (Cell Signaling Technologies, clone 9F3), beta-actin (Sigma, clone AC-15), or IGF-1R (Cell Signaling Technologies, #3027). Immunoreactive bands were developed using horseradish peroxidase-conjugated secondary antibodies (Bio-Rad Laboratories) and ECL substrate (GE Healthcare).

Brpkp110 cells = assay: Brpkp110 cell proliferation, MTS assay; format: cell-based, mouse; settings: in vitro, 2 days
Experimental: as §2

osteopontin (SPP1) = assay: LC-MS/MS of culture supernatants from Brpkp110 cells; format: cell-based, mouse; settings: 200 nM, 40 hrs
Experimental: Supernatants were collected, centrifuged, passed through a 0.22 μm filter, and concentrated by centrifugation in Amicon 3000 MWCO tubes (EMD Millipore). Concentrated sups were run 0.5 cm on a NuPage 12% Gel with MES buffer, extracted, and digested with trypsin.
Liquid chromatography tandem mass spectrometry (LC-MS/MS) analysis was performed by the Wistar Proteomics Facility using a Q Exactive Plus mass spectrometer (Thermo Scientific) coupled with a Nano-ACQUITY UPLC system (Waters). Samples were injected onto a UPLC Symmetry trap column (180 μm i.d.×2 cm packed with 5 μm C18 resin; Waters), and tryptic peptides were separated by RP-HPLC on a BEH C18 nanocapillary analytical column (75 μm i.d.×25 cm, 1.7 μm particle size; Waters) using a gradient formed by solvent A (0.1% formic acid in water) and solvent B (0.1% formic acid in acetonitrile). Peptides were eluted at 200 nL/min for 5-30% B over 225 min, 30-80% B over 5 min, constant 80% B for 10 min before returning to 5% B over 1 min. A 30-min blank gradient was run between sample injections to minimize carryover. Eluted peptides were analyzed by the mass spectrometer set to repetitively scan m/z from 400 to 2000. […]
MS data were analyzed with MaxQuant 1.5.2.8 software^42. […]

human T cells [4] = assay: Cytokine rescue of human T cell proliferation from MEK inhibition; format: cell-based
Experimental: Proliferation of CD8 T cells after 7 days is shown.
FIG. 2D is a graph showing that human PBMCs were activated as in FIG. 2B with the indicated compounds, BKM120=2 μM.
Reported are percentages of cells that proliferated with GDC0973 relative to vehicle treatment with the same cytokines after 7 days. Stains are not depicted.
T cell stimulation—For human T cell proliferation assays, peripheral blood lymphocytes were obtained by leukapheresis/elutriation and Miltenyi bead-purified and K562 cells expressing human CD32 were generated as previously described^41. K32 were γ-irradiated (100 Gy) and loaded with anti-CD3 (500 ng/ml, clone OKT3; eBioscience) plus anti-CD28 (500 ng/ml, clone 15E8; EMD Millipore) antibodies at room temperature for 10 minutes. PBMCs were labeled with CELLTRACE Violet stain (Invitrogen) according to the manufacturer's instructions and cocultured with loaded K32 cells at a 10:1 T cells:K32 ratio or activated with ConA (2 μg/ml, Sigma). Proliferation of stimulated T cells was determined 7 days later by FACS and Division Index was calculated using FlowJo software.

C[C@]1(O)C[C@@H](c2nc(-c3ccc4ccc(-c5ccccc5)nc4c3)c3c(N)nccn32)C1 [OSI906]
proliferation of human T cells in response to aAPC coated with agonistic CD3 and CD28 antibodies (human T cells [1]): did not impact
activity on T cells (human T cells [2]; except at a high concentration): did not show any activity
activity on A2780 cells [3]: did not show any activity
tumor cell proliferation of MCF-7 cells (MCF-7 tumor cells): a reduction in tumor cell proliferation at concentrations that did not affect T cells

CCCCCCCCCCCCCC(=O)O[C@@H]1[C@@H](C)[C@@]2(O)[C@@H](C=C(CO)C[C@]3(O)C(=O)C(C)=C[C@@H]23)[C@@H]2C(C)(C)[C@]12OC(C)=O [PMA, phorbol-12-myristate-13-acetate]
ERK phosphorylation under PI3K inhibition (ERK1/2 phosphorylation; without fully restoring AKT phosphorylation): completely overcomes the suppressive effect

CC(=O)Nc1cccc(-n2c(=O)n(C3CC3)c(=O)c3c(Nc4ccc(I)cc4F)n(C)c(=O)c(C)c32)c1 [trametinib]
growth compared to vehicle (Brpkp110 cells): 70%
EC50 (human T cells [2]; T-cell, 168 h, human T cells activated with ConA for 7 days, N/A = ambiguous curve fits or EC50 greater than the highest concentration tested (25 μM)): 0.337 nM
decrease of osteopontin (SPP1) in Brpkp110 supernatants (osteopontin (SPP1)): > 18 fold

IL-15: recombinant human IL-15 (Novoprotein), proliferative cytokine
rescue of T cell proliferation in the presence of the MEK inhibitors (human T cells [4]; GDC0973 or trametinib): able to rescue T cell proliferation
rescue of T cell expansion when PI3K and MEK inhibitors were combined (human T cells [4]; trametinib + BKM120): could not be fully rescued
rescue of the defect in ERK phosphorylation in the presence of BKM120 (ERK1/2 phosphorylation; pan-PI3K inhibitor BKM120 present): unable to rescue
rescue of early TCR-induced MAPK signaling (ERK1/2 phosphorylation) from MEK inhibition (ERK1/2 phosphorylation; within 10 minutes): can rescue
